Measurements published in US10537128B2, “Yeast, yeast extract containing gamma-Glu-Abu, and a method for producing the same” (AJINOMOTO CO., INC., priority 2010, dated 2020).

What was measured:
[1] = test system: kokumi (initial taste, middle-after taste) scored by panelists; assay: quantitative organoleptic evaluation test of kokumi-imparting activity; assay type: in vivo, human; conditions: for Intensity of kokumi, Initial taste: inosine monophosphate 0.05 g/dl, sodium chloride 0.5 g/dl; for Intensity of kokumi, Initial taste / Intensity of kokumi, Middle-after taste: score 0 control, 3 strong, 5 extremely strong, n=4
Method: Degree of kokumi-imparting activity of γ-Glu-Abu was investigated through a quantitative organoleptic evaluation test.
The quantitative organoleptic evaluation test was carried out as follows. Strength of the kokumi-imparting activity of a test compound was measured by using a mixture containing the test compound at 0.001 to 0.5 g/dl in distilled water containing sodium glutamate (0.05 g/dl), inosine monophosphate (0.05 g/dl), and sodium chloride (0.5 g/dl). A sample of the distilled water containing sodium glutamate, inosine monophosphate, and sodium chloride to which any test compound was not added was used as a no addition control. Samples that became acidic relative to the no addition control after dissolution of the test compound were used after pH of them was adjusted with NaOH to be within the range of ±0.2 from that of the no addition control.
The test was performed with organoleptic scores of 0 for the control, 3 for strong effect, and 5 for extremely strong effect, and n=4. Moreover, in order to make the criteria more definite, the scores of 0.001 g/dl of γ-Glu-Val-Gly for the initial taste and the middle-after taste were defined to be 3.0. The “middle-after taste” is a taste sensed in the periods for the middle taste and the aftertaste. Specifically, the initial taste, middle taste, and aftertaste are tastes sensed in the periods of 0 to 2 seconds, 2 to 5 seconds, and after 5 seconds, after eating, respectively, and the “middle-after taste” is a taste sensed in the period from 2 seconds to around 30 seconds. For the scoring, the linear scale method was used, in which determined scores were noted on a straight line on which positions of scores of from −5 to 5 were indicated. The panelists were consisted of persons who had experience of development of seasonings for foodstuffs for one year or longer in total, and could judge the difference of the titers of γ-Glu-Cys-Gly and γ-Glu-Val-Gly added to the tasty and salty solution to be about 10 times (this ability was periodically confirmed).
Kokumi-imparting activities of γ-Glu-Cys and other dipeptides were determined by the same quantitative organoleptic evaluation test as mentioned above.

[2] = storage stability; assay type: physicochemical; conditions: compared with γ-Glu-Cys
[3] = test system: CaSR; assay: CaSR agonist activity; conditions: previously found by the inventors
CaSR, sequence (P41180 20-1078): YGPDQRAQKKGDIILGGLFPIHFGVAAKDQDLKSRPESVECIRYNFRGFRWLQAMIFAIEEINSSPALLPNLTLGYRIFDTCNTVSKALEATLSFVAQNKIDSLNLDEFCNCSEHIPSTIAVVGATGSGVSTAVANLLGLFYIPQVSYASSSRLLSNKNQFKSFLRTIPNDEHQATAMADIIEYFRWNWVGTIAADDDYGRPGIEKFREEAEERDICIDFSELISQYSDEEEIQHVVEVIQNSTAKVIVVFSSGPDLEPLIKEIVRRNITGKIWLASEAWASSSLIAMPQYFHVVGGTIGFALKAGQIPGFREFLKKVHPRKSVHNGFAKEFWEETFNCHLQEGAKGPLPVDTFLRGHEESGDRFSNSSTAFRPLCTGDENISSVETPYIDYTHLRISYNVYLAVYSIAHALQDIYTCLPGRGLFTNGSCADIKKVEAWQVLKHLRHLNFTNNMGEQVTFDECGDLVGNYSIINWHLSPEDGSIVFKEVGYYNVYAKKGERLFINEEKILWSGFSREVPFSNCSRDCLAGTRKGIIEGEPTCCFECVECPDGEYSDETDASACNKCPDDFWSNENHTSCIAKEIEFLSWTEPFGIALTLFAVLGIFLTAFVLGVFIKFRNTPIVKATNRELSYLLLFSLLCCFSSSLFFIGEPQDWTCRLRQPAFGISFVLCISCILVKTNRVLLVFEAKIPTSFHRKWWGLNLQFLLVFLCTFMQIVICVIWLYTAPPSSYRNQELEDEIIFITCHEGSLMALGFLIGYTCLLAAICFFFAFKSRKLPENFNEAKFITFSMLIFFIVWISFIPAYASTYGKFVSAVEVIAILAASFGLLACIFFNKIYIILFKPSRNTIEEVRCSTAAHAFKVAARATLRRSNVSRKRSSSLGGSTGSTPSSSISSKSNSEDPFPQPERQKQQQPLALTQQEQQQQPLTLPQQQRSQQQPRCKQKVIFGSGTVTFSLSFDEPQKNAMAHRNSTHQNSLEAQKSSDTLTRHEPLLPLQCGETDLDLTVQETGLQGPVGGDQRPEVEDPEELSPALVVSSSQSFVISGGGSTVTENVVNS

[4] = 0.01 g/dl in distilled water with sodium glutamate 0.05 g/dl
[5] = 0.01 g/dl in the same tasty and salty solution
[6] = 0.2 g/dl in distilled water with sodium glutamate 0.05 g/dl
[7] = 0.2 g/dl in the same tasty and salty solution

Molecule	Intensity of kokumi, Initial taste [1, 4]	Intensity of kokumi, Middle-after taste [1, 5]	Intensity of kokumi, Initial taste [1, 6]	Intensity of kokumi, Middle-after taste [1, 7]	other results
CC(C)[C@H](NC(=O)CC[C@H](N)C(=O)O)C(=O)O [γ-Glu-Val]	3.1	2.4	–	–	–
N[C@@H](CCC(=O)N[C@@H](CO)C(=O)O)C(=O)O [γ-Glu-Ser]	–	–	3.6	3.0	–
C[C@H](NC(=O)CC[C@H](N)C(=O)O)C(=O)O [γ-Glu-Ala]	–	–	4.5	4.3	–
L-γ-glutamyl-L-2-aminobutyric acid [γ-Glu-Abu]	–	–	–	–	Intensity of kokumi, Initial taste ([1]; 0.005 g/dl in distilled water with sodium glutamate 0.05 g/dl): 3.8; Intensity of kokumi, Middle-after taste ([1]; 0.005 g/dl in the same tasty and salty solution): 3.2; kokumi-imparting activity (in words) ([1]; addition concentration range 0.001 to 0.5 g/dl): showed kokumi-imparting activity in a broad range; kokumi titer (in words) ([1]; compared with γ-Glu-Ala): extremely high titer; storage stability (in words) [2]: superior storage stability; CaSR agonist activity (in words) [3]: high CaSR agonist activity
N[C@@H](CCC(=O)N[C@@H](CS)C(=O)O)C(=O)O [γ-Glu-Cys, γ-glutamylcysteine]	3.1	3.1	–	–	–
